According to ChEMBL document CHEMBL5223092, “Antibacterial activities of plant-derived xanthones” (RSC Med Chem, 2022):
Converted amounts (≈) assume the structure as drawn.

Tests used:
Salmonella typhimurium [1] = assay: Antibacterial activity against Salmonella typhimurium TISTR 292 incubated for 16 to 18 hrs by Mueller-Hinton broth based two-fold serial dilution method; assay type: functional, Salmonella enterica subsp. enterica serovar Typhimurium; settings: Salmonella enterica, time 16-18 hrs
[2] = Lipophilicity, logP of the compound; assay type: physicochemical; settings: octanol/water
Micrococcus luteus [3] = assay: Antibacterial activity against Micrococcus luteus TISTR 884 by Mueller-Hinton broth based two-fold serial dilution method; assay type: functional
Salmonella typhimurium [4] = assay: Antibacterial activity against Salmonella typhimurium TISTR 292 by Mueller-Hinton broth based two-fold serial dilution method; assay type: functional, Salmonella enterica subsp. enterica serovar Typhimurium; settings: Salmonella enterica
Staphylococcus aureus [5] = assay: Antibacterial activity against methicillin resistant Staphylococcus aureus SK1 by Mueller-Hinton broth based two-fold serial dilution method; assay type: functional
[6] = system: Staphylococcus epidermidis; assay: Antibacterial activity against Staphylococcus epidermis ATCC 12228 by Mueller-Hinton broth based two-fold serial dilution method; assay type: functional
Bacillus cereus = assay: Antibacterial activity against Bacillus cereus TISTR 688 by Mueller-Hinton broth based two-fold serial dilution method; assay type: functional
Staphylococcus aureus [7] = assay: Antibacterial activity against Staphylococcus aureus TISTR 1466 by Mueller-Hinton broth based two-fold serial dilution method; assay type: functional
Bacillus subtilis [8] = assay: Antibacterial activity against Bacillus subtilis TISTR 008 by Mueller-Hinton broth based two-fold serial dilution method; assay type: functional
Vibrio rotiferianus = assay: Antibacterial activity against Vibrio rotiferianus MCCC E385; assay type: functional
Escherichia coli [9] = assay: Antibacterial activity against Escherichia coli NIHJ K 12; assay type: functional
Vibrio campbellii = assay: Antibacterial activity against Vibrio campbellii MCCC E333; assay type: functional
Vibrio vulnificus = assay: Antibacterial activity against Vibrio vulnificus MCCC E1758; assay type: functional
Staphylococcus aureus [10] = assay: Antibacterial activity against Staphylococcus aureus NIHJ 209p; assay type: functional
Staphylococcus aureus [11] = assay: Antibacterial activity against methicillin resistant Staphylococcus aureus by liquid dilution method; assay type: functional
Staphylococcus aureus [12] = assay: Antibacterial activity against methicillin resistant Staphylococcus aureus incubated for 20 hrs by Mueller-Hinton broth based agar based dilution method; assay type: functional
Micrococcus luteus [13] = assay: Antibacterial activity against Micrococcus luteus ATCC 9341 incubated for 20 hrs by Mueller-Hinton broth based agar based dilution method; assay type: functional
Bacillus subtilis [14] = assay: Antibacterial activity against Bacillus subtilis PCI 219 incubated for 20 hrs by Mueller-Hinton broth based agar based dilution method; assay type: functional
Enterococcus faecalis [15] = assay: Antibacterial activity against Enterococcus faecalis JU 1856 incubated for 20 hrs by Mueller-Hinton broth based agar based dilution method; assay type: functional
Enterococcus faecalis [16] = assay: Antibacterial activity against Enterococcus faecalis JU 1782 incubated for 20 hrs by Mueller-Hinton broth based agar based dilution method; assay type: functional
Enterococcus faecalis [17] = assay: Antibacterial activity against Enterococcus faecalis JCM 7783 incubated for 20 hrs by Mueller-Hinton broth based agar based dilution method; assay type: functional
Staphylococcus aureus [18] = assay: Antibacterial activity against methicillin sensitive Staphylococcus aureus JCM 2874 incubated for 20 hrs by Mueller-Hinton broth based agar based dilution method; assay type: functional
Salmonella typhi = assay: Antibacterial activity against Salmonella typhi incubated for 8 to 12 hrs by Alamar blue reagent based microdilution broth method; assay type: functional, Salmonella enterica subsp. enterica serovar Typhi; settings: Salmonella enterica; time 8-12 hrs
Staphylococcus aureus [19] = assay: Antibacterial activity against methicillin resistant Staphylococcus aureus; assay type: functional
Staphylococcus aureus [20] = assay: Antibacterial activity against Staphylococcus aureus TISTR 517 incubated for 8 to 12 hrs by Alamar blue reagent based microdilution broth method; assay type: functional; settings: time 8-12 hrs
Enterococcus faecalis [21] = assay: Antibacterial activity against Streptococcus faecalis incubated for 8 to 12 hrs by Alamar blue reagent based microdilution broth method; assay type: functional; settings: time 8-12 hrs
Bacillus subtilis [22] = assay: Antibacterial activity against Bacillus subtilis incubated for 8 to 12 hrs by Alamar blue reagent based microdilution broth method; assay type: functional; settings: time 8-12 hrs
Micrococcus luteus [23] = assay: Antibacterial activity against Micrococcus luteus; assay type: functional
Pseudomonas aeruginosa [24] = assay: Antibacterial activity against Pseudomonas aeruginosa incubated for 8 to 12 hrs by Alamar blue reagent based microdilution broth method; assay type: functional; settings: time 8-12 hrs
Escherichia coli [25] = assay: Antibacterial activity against Escherichia coli; assay type: functional
Staphylococcus aureus [26] = assay: Antibacterial activity against Staphylococcus aureus; assay type: functional
Pseudomonas aeruginosa [27] = assay: Antibacterial activity against Pseudomonas aeruginosa; assay type: functional
[28] = system: Staphylococcus epidermidis; assay: Antibacterial activity against Staphylococcus epidermidis; assay type: functional
Vibrio harveyi [29] = assay: Antibacterial activity against Vibrio harveyi SZ-1 incubated for 24 hrs by oxford cup method; assay type: functional
Vibrio harveyi [30] = assay: Antibacterial activity against Vibrio harveyi 1.8690 incubated for 24 hrs by oxford cup method; assay type: functional

Structure (SMILES): COc1cc2c(=O)c3c(O)cc(O)cc3oc2cc1O [ALLOATHYRIOL]
- MIC (Salmonella typhimurium [1]): 4 µg/mL (≈ 14.6 µM)
- logP [2]: 1.74

Structure (SMILES): COc1c(O)cc2oc3cc(O)c(CC=C(C)C)c(O)c3c(=O)c2c1C/C=C(\C)CCC=C(C)C [COWANIN]
- MIC (Micrococcus luteus [3]): 4 µg/mL (≈ 8.36 µM)
- MIC (Salmonella typhimurium [4]): 64 µg/mL (≈ 134 µM)
- MIC (Staphylococcus aureus [5]): 2 µg/mL (≈ 4.18 µM)
- MIC [6]: 2 µg/mL (≈ 4.18 µM)
- MIC (Bacillus cereus): 32 µg/mL (≈ 66.9 µM)
- MIC (Staphylococcus aureus [7]): 32 µg/mL (≈ 66.9 µM)
- MIC (Bacillus subtilis [8]): 4 µg/mL (≈ 8.36 µM)

Structure (SMILES): CC(C)=CCc1c(O)cc2oc3c(CC=C(C)C)c(O)c(O)c(CC=C(C)C)c3c(=O)c2c1O [GARCINONE E]
- MIC (Vibrio rotiferianus): 15.6 µg/mL (≈ 33.6 µM)
- MIC (Escherichia coli [9]): 25 µg/mL (≈ 53.8 µM)
- MIC (Vibrio campbellii): 31.2 µg/mL (≈ 67.2 µM)
- MIC (Vibrio vulnificus): 15.6 µg/mL (≈ 33.6 µM)
- MIC (Staphylococcus aureus [10]): 12.5 µg/mL (≈ 26.9 µM)
- MIC (Staphylococcus aureus [11]): 25 µg/mL (≈ 53.8 µM)

Structure (SMILES): C=CC(C)(C)c1c(O)cc2oc3c(O)c4c(cc3c(=O)c2c1O)C=CC(C)(C)O4 [GERONTOXANTHONE B]
- MIC (Staphylococcus aureus [12]): 25 µg/mL (≈ 63.4 µM)
- MIC (Micrococcus luteus [13]): 12.5 µg/mL (≈ 31.7 µM)
- MIC (Bacillus subtilis [14]): > 25 µg/mL

Structure (SMILES): CC(C)=CCc1c(O)cc(O)c2c(=O)c3c(CC=C(C)C)c(O)ccc3oc12 [GERONTOXANTHONE H]
- MIC (Staphylococcus aureus [12]): 1.56 µg/mL (≈ 4.1 µM)
- MIC (Enterococcus faecalis [15]): 1.56 µg/mL (≈ 4.1 µM)
- MIC (Enterococcus faecalis [16]): 1.56 µg/mL (≈ 4.1 µM)
- MIC (Micrococcus luteus [13]): 1.56 µg/mL (≈ 4.1 µM)
- MIC (Enterococcus faecalis [17]): 1.56 µg/mL (≈ 4.1 µM)
- MIC (Bacillus subtilis [14]): 1.56 µg/mL (≈ 4.1 µM)
- MIC (Staphylococcus aureus [18]): 1.56 µg/mL (≈ 4.1 µM)

Structure (SMILES): C=CC(C)(C)c1c(O)c(CC=C(C)C)c(O)c2c(=O)c3ccc(O)c(O)c3oc12 [GERONTOXANTHONE I]
- MIC (Salmonella typhi): 1.1 µg/mL (≈ 2.77 µM)
- MIC (Staphylococcus aureus [19]): 3.13 µg/mL (≈ 7.9 µM)
- MIC (Staphylococcus aureus [20]): 1.1 µg/mL (≈ 2.77 µM)
- MIC (Enterococcus faecalis [21]): 3.13 µg/mL (≈ 7.9 µM)
- MIC (Bacillus subtilis [22]): 2.5 µg/mL (≈ 6.31 µM)
- MIC (Micrococcus luteus [23]): 6.25 µg/mL (≈ 15.8 µM)
- MIC (Pseudomonas aeruginosa [24]): > 50 µg/mL

Structure (SMILES): COc1c(O)cc2oc3cc(O)c(CC=C(C)C)c(O)c3c(=O)c2c1CC=C(C)C [MANGOSTIN]
- MIC (Escherichia coli [25]): 12.5 µg/mL (≈ 30.5 µM)
- MIC (Staphylococcus aureus [26]): 3.13 µg/mL (≈ 7.63 µM)
- MIC (Staphylococcus aureus [19]): 6.25 µg/mL (≈ 15.2 µM)
- MIC (Micrococcus luteus [23]): 1 µg/mL (≈ 2.44 µM)
- MIC (Pseudomonas aeruginosa [27]): 12.5 µg/mL (≈ 30.5 µM)
- MIC [28]: 1.56 µg/mL (≈ 3.8 µM)

Structure (SMILES): COc1cc(O)cc2c1C(=O)c1c(O)cc(C)cc1C2=O [QUESTIN]
- MIC (Vibrio harveyi [29]): < 50 µg/mL
- MIC (Vibrio harveyi [30]): < 50 µg/mL

Structure (SMILES): COc1c(O)cc2oc3cc(O)cc(O)c3c(=O)c2c1C/C=C(\C)CCC=C(C)C [RUBRAXANTHONE]
- MIC (Micrococcus luteus [3]): 2 µg/mL (≈ 4.87 µM)
- MIC (Staphylococcus aureus [26]): 12 µg/mL (≈ 29.2 µM)
- MIC [6]: 4 µg/mL (≈ 9.75 µM)
- MIC (Staphylococcus aureus [11]): 1.25 µg/mL (≈ 3.05 µM)
- MIC (Bacillus subtilis [8]): 1 µg/mL (≈ 2.44 µM)
